Experimental data as given in US20100137313A1 (ASTRAZENECA AB, priority 2008, published 2010).

What follows are compounds tested against S. pneumoniae Topoisomerase IV ATPase (ParE) (Streptococcus pneumoniae serotype 4, UniProt Q59961) (assay: S. pneumoniae Topoisomerase IV ATPase inhibition). Details: values marked * are an average of two or more data points, read-out: % Inh (13 μM) of S. pneumoniae Topoisomerase IV ATPase.
S. pneumoniae Topoisomerase IV ATPase (ParE), sequence (Q59961 whole entry): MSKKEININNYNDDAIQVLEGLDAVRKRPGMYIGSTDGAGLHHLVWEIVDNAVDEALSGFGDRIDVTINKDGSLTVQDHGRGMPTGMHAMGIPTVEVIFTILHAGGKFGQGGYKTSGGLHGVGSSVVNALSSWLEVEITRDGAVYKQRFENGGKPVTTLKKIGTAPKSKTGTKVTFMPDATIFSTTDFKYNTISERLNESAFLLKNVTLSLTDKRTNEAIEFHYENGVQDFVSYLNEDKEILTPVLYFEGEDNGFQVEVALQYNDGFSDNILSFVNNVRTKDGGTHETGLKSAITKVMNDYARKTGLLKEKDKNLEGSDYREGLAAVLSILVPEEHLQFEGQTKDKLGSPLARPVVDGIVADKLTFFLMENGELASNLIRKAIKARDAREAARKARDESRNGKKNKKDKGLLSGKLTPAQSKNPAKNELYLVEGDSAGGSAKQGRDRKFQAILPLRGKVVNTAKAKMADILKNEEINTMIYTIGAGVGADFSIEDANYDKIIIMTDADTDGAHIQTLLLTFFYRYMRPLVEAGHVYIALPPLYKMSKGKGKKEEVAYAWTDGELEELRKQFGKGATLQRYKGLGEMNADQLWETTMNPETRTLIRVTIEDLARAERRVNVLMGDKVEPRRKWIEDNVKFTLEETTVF
Format: biochemical
Method in brief: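 S. pneumoniae ParE (1.25 nM) ATPase with 160 μM ATP and 5 μg/ml sheared DNA in pH 8.0 Tris, Mg2+, DTT, Brij-35; phosphate detected by malachite green/molybdate at 650 nm. Normalised to 2% DMSO (0%) and 20 μM EDTA (100%); IC50 from 10 concentrations.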
`COc1cc(Nc2ncc(-c3cccc(/C=C/C(=O)O)c3)c(NCCc3ccncc3)n2)cc(C(F)(F)F)c1` [Example 355, (E)-3-(3-(2-(3-methoxy-5-(trifluoromethyl)phenylamino)-4-(2-(pyridin-4-yl)ethylamino)pyrimidin-5-yl)phenyl) acrylic acid] gave an inhibition at 13 µM of 86.6%.
With `COc1cc(Nc2ncc(-c3cnc(OC)nc3)c(NCCc3ccncc3)n2)cc(C(F)(F)F)c1` [Example 356, 2′-methoxy-N^2-(3-methoxy-5-(trifluoromethyl)phenyl)-N^4-(2-(pyridin-4-yl)ethyl)-5,5′-bipyrimidine-2,4-diamine] the inhibition at 13 µM was 86.5%.
`COc1cc(Nc2ncc(-c3cccc(/C=C/C(=O)O)c3)c(N[C@@H]3CCOC3)n2)cc(OC)c1` [Example 357, (R,E)-3-(3-(2-(3,5-dimethoxyphenylamino)-4-(tetrahydrofuran-3-ylamino)pyrimidin-5-yl)phenyl)acrylic acid] was tested, and the inhibition at 13 µM was 85.3%.
For `COc1cc(Nc2ncc(-c3cncnc3)c(N[C@@H]3CCOC3)n2)cc(OC)c1` [Example 358, (R)-N^2-(3,5-dimethoxyphenyl)-N^4-(tetrahydrofuran-3-yl)-5,5′-bipyrimidine-2,4-diamine], the inhibition at 13 µM was 63%.
Compound `O=C(O)/C=C/c1cccc(-c2cnc(Nc3ccc(F)c(Cl)c3)nc2-n2ccnc2)c1` [Example 359, (E)-3-(3-(2-(3-chloro-4-fluorophenylamino)-4-(1H-imidazol-1-yl)pyrimidin-5-yl)phenyl)acrylic acid] has an inhibition at 13 µM of 86.1%.
`CONC(=O)c1cccc(-c2cnc(Nc3ccc(F)c(Cl)c3)nc2NCCCN(C)C)c1` [Example 360, 3-(2-(3-chloro-4-fluorophenylamino)-4-(3-(dimethylamino)propylamino)pyrimidin-5-yl)-N-methoxybenzamide] was tested, and the inhibition at 13 µM was 112%.
`CCNC(=O)c1cccc(-c2cnc(Nc3ccc(F)c(Cl)c3)nc2NCCCN(C)C)c1` [Example 361, 3-(2-(3-chloro-4-fluorophenylamino)-4-(3-(dimethylamino)propylamino)pyrimidin-5-yl)-N-ethylbenzamide] gave an inhibition at 13 µM of 94.8%.
`CN(C)CCCNc1nc(Nc2ccc(F)c(Cl)c2)ncc1-c1cccc(C(=O)NCc2ccccc2)c1` [Example 362, N-benzyl-3-(2-(3-chloro-4-fluorophenylamino)-4-(3-(dimethylamino)propylamino)pyrimidin-5-yl) benzamide] showed an inhibition at 13 µM of 107%.
For `CCNC(=O)c1ccc(-c2cnc(Nc3ccc(F)c(Cl)c3)nc2NCCCN(C)C)cc1` [Example 363, 4-(2-(3-chloro-4-fluorophenylamino)-4-(3-(dimethylamino)propylamino)pyrimidin-5-yl)-N-ethylbenzamide], the inhibition at 13 µM was 57.9%.
`CN(C)CCCNc1nc(Nc2ccc(F)c(Cl)c2)ncc1-c1ccc(C(=O)N(C)C)cc1` [Example 364, 4-(2-(3-chloro-4-fluorophenylamino)-4-(3-(dimethylamino)propylamino)pyrimidin-5-yl)-N,N-dimethylbenzamide] gave an inhibition at 13 µM of 112%.
`CN(C)CCCNc1nc(Nc2ccc(F)c(Cl)c2)ncc1-c1ccc(C(=O)NCc2ccccc2)cc1` [Example 365, N-benzyl-4-(2-(3-chloro-4-fluorophenylamino)-4-(3-(dimethylamino)propylamino)pyrimidin-5-yl) benzamide] gave an inhibition at 13 µM of 110%.
With `CN(C)CCCNc1nc(Nc2ccc(F)c(Cl)c2)ncc1-c1ccc(C(=O)N(C)C)s1` [Example 366, 5-(2-(3-chloro-4-fluorophenylamino)-4-(3-(dimethylamino)propylamino)pyrimidin-5-yl)-N,N-dimethylthiophene-2-carboxamide] the inhibition at 13 µM was 80.5%.
In the case of `CCNC(=O)c1ccc(-c2cnc(Nc3ccc(F)c(Cl)c3)nc2NCCCN(C)C)s1` [Example 367, 5-(2-(3-chloro-4-fluorophenylamino)-4-(3-(dimethylamino)propylamino)pyrimidin-5-yl)-N-ethylthiophene-2-carboxamide], the inhibition at 13 µM is reported as 104%.
For `CN(C)CCCNc1nc(Nc2ccc(F)c(Cl)c2)ncc1-c1ccc(C(=O)NCc2ccccc2)s1` [Example 368, N-benzyl-5-(2-(3-chloro-4-fluorophenylamino)-4-(3-(dimethylamino)propylamino)pyrimidin-5-yl) thiophene-2-carboxamide], the inhibition at 13 µM was 105%.
`CN(C)CCCNc1nc(Nc2ccc(F)c(Cl)c2)ncc1-c1ccc(C(=O)N2CCCCC2)s1` [Example 369, (5-(2-(3-chloro-4-fluorophenylamino)-4-(3-(dimethylamino)propylamino)pyrimidin-5-yl)thiophen-2-yl) (piperidin-1-yl) methanone] gave an inhibition at 13 µM of 122%.
`CN(C)CCCNc1nc(Nc2ccc(F)c(Cl)c2)ncc1-c1ccc(C(=O)N2CCCC(F)(F)C2)s1` [Example 370, (5-(2-(3-chloro-4-fluorophenylamino)-4-(3-(dimethylamino)propylamino)pyrimidin-5-yl)thiophen-2-yl) (3,3-difluoro-piperidin-1-yl) methanone] showed an inhibition at 13 µM of 129%.
`CN(C)CCCNc1nc(Nc2ccc(F)c(Cl)c2)ncc1-c1cncc(C(=O)NCc2ccccc2)c1` [Example 371, N-benzyl-5-(2-(3-chloro-4-fluorophenylamino)-4-(3-(dimethylamino)propylamino)pyrimidin-5-yl) nicotinamide] showed an inhibition at 13 µM of 82.2%.
For `CNC(=O)/C=C/c1cccc(-c2cnc(Nc3cc(OC)cc(C(F)(F)F)c3)nc2NCCc2ccncc2)c1` [Example 372], the inhibition at 13 µM was 80.9%.
`COc1cc(Nc2ncc(-c3cccc(/C=C/C(N)=O)c3)c(NCCc3ccncc3)n2)cc(C(F)(F)F)c1` [Example 373, (E)-3-(3-(2-(3-methoxy-5-(trifluoromethyl)phenylamino)-4-(2-(pyridin-4-yl)ethylamino)pyrimidin-5-yl)phenyl)acrylamide] showed an inhibition at 13 µM of 82.8%.
With `CONC(=O)/C=C/c1cccc(-c2cnc(Nc3cc(OC)cc(C(F)(F)F)c3)nc2NCCc2ccncc2)c1` [Example 374, (E)-N-methoxy-3-(3-(2-(3-methoxy-5-(trifluoromethyl)phenylamino)-4-(2-(pyridin-4-yl)ethylamino)pyrimidin-5-yl)phenyl)acrylamide] the inhibition at 13 µM was 81.2%.
In the case of `CNC(=O)/C=C/c1cccc(-c2cnc(Nc3ccc(F)c(Cl)c3)nc2N2CCOCC2)c1` [Example 375, (E)-3-(3-(2-(3-chloro-4-fluorophenylamino)-4-morpholinopyrimidin-5-yl)phenyl)-1H-methylacrylamide], the inhibition at 13 µM is reported as 75.9%.
`CONC(=O)/C=C/c1cccc(-c2cnc(Nc3ccc(F)c(Cl)c3)nc2N2CCOCC2)c1` [Example 376, (E)-3-(3-(2-(3-chloro-4-fluorophenylamino)-4-morpholinopyrimidin-5-yl)phenyl)-N-methoxyacrylamide] showed an inhibition at 13 µM of 87.2%.
Compound `CC(=O)NCCCNc1nc(Nc2ccc(F)c(Cl)c2)ncc1-c1cncnc1` [Example 377, N-(3-(2-(3-chloro-4-fluorophenylamino)-5,5′-bipyrimidin-4-ylamino)propyl)acetamide] has an inhibition at 13 µM of 78.9%.
Compound `CCOC(=O)c1cncc(-c2cnc(Nc3cc(OC)cc(-n4cnnn4)c3)nc2N2CCOCC2)c1` [Example 380, 5-[2-(3-Methoxy-5-tetrazol-1-yl-phenylamino)-4-morpholin-4-yl-pyrimidin-5-yl]-nicotinic acid ethyl ester] has an inhibition at 13 µM of 37%.
In the case of `O=C(O)c1cncc(-c2cnc(Nc3cc(F)cc(F)c3)nc2N2CCOCC2)c1` [Example 388, 5-[2-(3,5-Difluoro-phenylamino)-4-morpholin-4-yl-pyrimidin-5-yl]nicotinic acid], the inhibition at 13 µM is reported as 72%.
